These results are taken from patent US5569670A, “Combination medications containing alpha-lipoic acid and related” (Asta Medica Aktiengesellschaft, priority 1992, dated 1996).

Read-outs that look alike come from different tables or passages of the source. Where only a bound is given, the exact number is not on record here.

A short description of series [1]: in vivo. To be noted: in vivo, mouse.
Series [2] can be described thus: in vivo. To be noted: in vivo, rat.
The conditions of series [3]: cited from earlier work.
A further series deals with mouse. Description: in vivo.
In another series the test system is rat. Description: in vivo.
The conditions of series [4]: cited from earlier work. This is another data set of the same source.
Where [5] appears, read: po, oral administration, LITCHFIELD and WILCOXON method, read-out: acute toxicity LD50.

As a reminder, the LD50 is the dose expected to kill half of the subjects tested. In the case of `O=C1O[C@H]([C@@H](O)CO)C(O)=C1O` [Vitamin C, ascorbic acid], the LD50 in “in vivo [1]” (iv, read-out: LD50) is 1060 mg/kg; in “in vivo [1]” (po, read-out: LD50), 8020 mg/kg; in the series “in vivo [2]” (iv) it was 1000 mg/kg; in the series “in vivo [2]” (po), > 5000 mg/kg.

`O=C(O)CCCC[C@H]1CCSS1` [S-alpha-lipoic acid]: the LD50 in “in vivo [1]” (setting [5]) was > 1000 mg/kg. In addition, the “predominant effect of the enantiomer (antinociceptive)” value in series [3] (in vivo) is reported as “predominantly antinociceptive effect”. Also, in series [3] (up to x times stronger than the racemate), the “antinociceptive (analgesic) effect relative to the racemate” value is on record as “up to 6 times”.

In the case of Vitamin B6, the LD50 in the series with mouse (i.v.) was 1020 mg/kg; in the series with mouse (p.o.), 8400 mg/kg; in the series with rat (i.v.), 1450 mg/kg; in the series with rat (p.o.) it was 5500 to 15900 mg/kg.

Turning to `O=C(O)CCCC[C@@H]1CCSS1` [R-alpha-lipoic acid], the LD50 in “in vivo [1]” (setting [5]) was > 1000 mg/kg. Further, the “predominant effect of the enantiomer (anti-inflammatory)” value in series [4] (in vivo) is recorded as “predominantly anti-inflammatory effect”. The “anti-inflammatory effect relative to the racemate” value in series [4] (x times stronger than the racemate) is given as 10 times.

As to `O=C(O)CCCCC1CCSS1` (racemic) [alpha-lipoic acid (racemate), 1,2-dithia-cyclopentane-3-valeric acid], the LD50 in “in vivo [1]” (po, female, read-out: LD50) was 460 mg/kg; in “in vivo [1]” (po, male, read-out: LD50), 502 mg/kg; in the series “in vivo [2]” (po, female), 1210 mg/kg; in the series “in vivo [2]” (po, male), 1190 mg/kg.
